The values that follow come from patent US11246961B2, “Engineered scaffolds for vascularized tissue repair” (The Regents of the University of California, priority 2016, dated 2022).

Ends that are not written are not given here.

Test [1] concerns THP-1 monocytes. Nature of the test: flow cytometry ligand-cell binding, THP-1 monocytes. As to conditions: biotinylated ligand 1 μM. As to the method:
(§1) FIG. 10 presents flow cytometry data from an assay of binding affinity of LXW7 and GRGD (SEQ ID NO: 1) to different cell types. Tests included EPCs/ECs from different sources, including HECFCs (A), HCAECs (B), HMVECs (C), and THP-1 monocytes (D), Platelets (E), as well as K562 cells engineered to highly express αvβ3 (αvβ3-K562, F), and αIIbβ3 (αIIbβ3-K562, G). Cells were incubated with the LXW7-bio, GRGD-bio (SEQ ID NO: 1), or D-Biotin peptide and subsequently incubated with streptavidin-phycoerythrin. Flow cytometry analysis was performed to determine the binding affinity of the ligands. Samples treated with D-biotin were used as negative controls.
(§2) LXW7-bio (1 μM) was incubated with 3×10^5 HECFCs, HCAECs, HMVECs, αvβ3-K562 and αIIbβ3-K562 cells and THP-1 monocytes and 1×10^8 platelets in binding buffer (HEPES containing 10% FBS) on ice for 30 minutes. The samples were washed three times with DPBS containing 1% FBS and incubated with 2 μg/ml of streptavidin-phycoerythrin on ice for 30 minutes and then washed with DPBS. Samples were analyzed on a BD Fortessa LSR Cell Analyzer and further data analysis and gating were performed using FlowJo software (Treestar, Inc.).
Background: A flow cytometer gives signals particle by particle.

For test [2], the system named is platelets. The experiment in a line: flow cytometry ligand-cell binding, platelets. The following applies: biotinylated ligand 1 μM. The method, then: as §1, §2
A further test concerns the target T1, integrin αvβ3 (Homo sapiens, UniProt P05106+P06756).
T1 construct: expressed in transfected cells; host or cells: K562 myeloid leukemia cells (αvβ3-K562), provided by Dr. Yoshikazu Takada
The experiment in a line: flow cytometry ligand-cell binding, αvβ3-K562 cells. The following applies: K562 cells highly expressing integrin αvβ3. The method, then:
as §1
(§3) Human coronary artery endothelial cells (HCAECs) were purchased from ATCC. Human cardiac microvascular endothelial cells (HMVECs) were purchased from Lonza. THP-1 monocytes were obtained from Dr. Pamela Lein (University of California, Davis). […]
(§4) LXW7-bio (1 μM) was incubated with 3×10^5 HECFCs, HCAECs, HMVECs, αvβ3-K562 and αIIbβ3-K562 cells and THP-1 monocytes and 1×10^8 platelets in binding buffer (HEPES containing 10% FBS) on ice for 30 minutes. […] Samples were analyzed on a BD Fortessa LSR Cell Analyzer and further data analysis and gating were performed using FlowJo software (Treestar, Inc.).

Another test concerns the target T2, integrin αIIbβ3 (Homo sapiens, UniProt P05106+P08514).
T2 construct: expressed in transfected cells; host or cells: K562 myeloid leukemia cells (αIIbβ3-K562), provided by Dr. Jennifer Cochran (Stanford University)
The experiment in a line: flow cytometry ligand-cell binding, αIIbβ3-K562 cells. The following applies: K562 cells highly expressing αIIbβ3. The method, then: as §1, §3, §4

For test [3], the system named is HCAECs. The experiment in a line: attachment assay on ligand treated culture surfaces, HCAECs. The test is classed as cell-based, human. As to conditions: avidin + biotinylated ligand 2 μM; 10 minutes. From the text:
Ligands LXW7, LXY30, and LLP2A were synthesized as in U.S. Pat. No. 9,073,974. Biotinylated LXW7 (LXW7-bio) and biotinylated GRGD (GRGD-bio) (SEQ ID NO: 1) were synthesized using established solid phase peptide synthesis protocols (Xiao et al. (2010) Mol Cancer Therapeutics 9:2714). Peptide-bio was designed to have biotin attached to the side chain of Lys, with two hydrophilic linkers between peptide and Lys (biotin). To modify culture surface with ligands, target culture wells in a 24-well plate were coated with 500 μL of 20 μg/mL Avidin (Thermo Fisher Scientific), and incubated for 1 hour at 37° C. Avidin coated wells were rinsed three times with DPBS and were treated with 500 μL molar equivalents (2 μM) of D-biotin (Thermo Fisher Scientific), LXW7-bio, or GRGD-bio (SEQ ID NO: 1). After 1 hour, the wells were washed three times with DPBS and blocked with 1% bovine serum albumin (BSA; Thermo Fisher Scientific) for 1 hour. After the wells were rinsed three times with DPBS, for cell attachment assay, 5×10^4 HCAECs and THP-1 monocytes suspended in the respective maintenance medium were added to the wells and incubated for 10 minutes or 16 hours at 37° C., 5% CO2, respectively. After each time point the wells were washed three times with DPBS, and the adhered cells were fixed in 10% formalin (Azer Scientific) for 20 minutes. For platelets attachment assay, the PRP was centrifuged, and the platelet pellet was resuspended in 1% BSA with 2 mM CaCl2 and 1 mM MgCl2 to achieve a final concentration of 1×10^8 platelets/mL, added to the wells at a density of 5×10^7 platelets/cm^2, and incubated for 16 hours at 37° C., 5% CO2. The wells were washed three times with DPBS, and the adhered cells were fixed in 10% formalin for 20 min. The HCAECs wells were washed with DPBS again and blocked for 1 hour with 1% BSA. An additional wash was performed, and the plate was incubated overnight with mouse anti-PECAM-1 antibody (1:100; Abcam) in 1% BSA at 4° C. […] Five images were randomly taken from each sample and quantification of images was performed using the Image J software (NIH).

For test [4], the system named is THP-1 monocytes. Nature of the test: attachment assay on ligand treated culture surfaces, THP-1 monocytes. Type of test: cell-based. As to conditions: 16 hours. From the text:
(§5) Ligands LXW7, LXY30, and LLP2A were synthesized as in U.S. Pat. No. 9,073,974. Biotinylated LXW7 (LXW7-bio) and biotinylated GRGD (GRGD-bio) (SEQ ID NO: 1) were synthesized using established solid phase peptide synthesis protocols (Xiao et al. (2010) Mol Cancer Therapeutics 9:2714). Peptide-bio was designed to have biotin attached to the side chain of Lys, with two hydrophilic linkers between peptide and Lys (biotin). To modify culture surface with ligands, target culture wells in a 24-well plate were coated with 500 μL of 20 μg/mL Avidin (Thermo Fisher Scientific), and incubated for 1 hour at 37° C. Avidin coated wells were rinsed three times with DPBS and were treated with 500 μL molar equivalents (2 μM) of D-biotin (Thermo Fisher Scientific), LXW7-bio, or GRGD-bio (SEQ ID NO: 1). After 1 hour, the wells were washed three times with DPBS and blocked with 1% bovine serum albumin (BSA; Thermo Fisher Scientific) for 1 hour. After the wells were rinsed three times with DPBS, for cell attachment assay, 5×10^4 HCAECs and THP-1 monocytes suspended in the respective maintenance medium were added to the wells and incubated for 10 minutes or 16 hours at 37° C., 5% CO2, respectively. […] Five images were randomly taken from each sample and quantification of images was performed using the Image J software (NIH).

The test system of test [5] is platelets. Nature of the test: platelets attachment assay on ligand treated culture surfaces. The test is classed as cell-based. The following applies: 16 hours.
Description: as §5

Another test relates to HECFCs. The experiment in a line: on-bead whole cell binding assay, HECFCs. The test is classed as cell-based, human. The following applies: 2 hours incubation. An excerpt:
Endothelial colony forming cells (ECFCs), a subtype of EPCs also often referred to as outgrowth endothelial cells (OECs), were isolated from human umbilical cord blood as previously described (Williams et al. (2015) PloS One 10:e0123437; Ingram et al. (2004) Blood 104:2752). Human umbilical cord blood (10 U heparin/mL blood) was obtained from the UC Davis Umbilical Cord Blood Collection Program (UCBCP) and diluted 1:1 with Phosphate-buffered saline (PBS), without calcium and magnesium, pH 7.2 (Hyclone). Fifteen mL Ficoll-Paque PLUS (Amersham Biosciences) was laid at the bottom of 20 mL diluted blood and centrifuged at 2000 rpm for 30 minutes at room temperature. The hazy layer of mononuclear cells (MNCs) that seat at the interface between the Ficoll and serum was collected and dispensed into 50-mL conical tube containing 10 mL EBM-2 (Lonza) and centrifuged at 1500 rpm for 10 minutes at room temperature. The supernatant was carefully aspirated and the pellets were treated with red blood cell lysis buffer (eBioscience, Inc.) and then sorted by CD34 microbead magnetic sorting (Miltenyi Biotec GmbH) as per manufacturer's instructions. The CD34^+ cells were seeded on rat-tail collagen I (BD Biosciences Discovery) coated tissue culture plates and cultured in EGM-2 media (Lonza). After 24 h, non-adherent cells were removed and the media was changed daily to day 7 and every other day thereafter. ECFC-derived colonies appeared between day 4 and day 7 of culture with s typical endothelial cobblestone pattern. Individual colonies were isolated and expanded and allowed to grow to 80% to 90% confluency before first passage. ECFCs were used between P3 and P5 for all experiments.
HECFCs, HCAECs, HMVECs and THP-1 monocytes were cultured in their respective growth medium as described in Example 1. For cell bead-binding assay, 6×10^5 HECFCs, HCAECs, HMVECs or THP-1 monocytes in 2 mL of their respective culture medium were added to an ultra-low attachment 35-mm petri dish (Corning Incorporated) followed by resin beads (Lam et al. (1991) Nature 354:82). […]

In test [6] the test system is HCAECs. Nature of the test: on-bead whole cell binding assay, HCAECs. As to conditions: 2 hours incubation. The test is classed as cell-based, human. From the text:
Human coronary artery endothelial cells (HCAECs) were purchased from ATCC. Human cardiac microvascular endothelial cells (HMVECs) were purchased from Lonza. THP-1 monocytes were obtained from Dr. Pamela Lein (University of California, Davis). The myeloid leukemia K562 cells that have been transfected with human integrin αvβ3 gene (αvβ3-K562 cells) were provided by Dr. Yoshikazu Takada and the K562 cells transfected with human integrin αIIbβ3 gene (αIIb3-K562 cells) were provided Dr. Jennifer Cochran (Stanford University)
HECFCs, HCAECs, HMVECs and THP-1 monocytes were cultured in their respective growth medium as described in Example 1. For cell bead-binding assay, 6×10^5 HECFCs, HCAECs, HMVECs or THP-1 monocytes in 2 mL of their respective culture medium were added to an ultra-low attachment 35-mm petri dish (Corning Incorporated) followed by resin beads (Lam et al. (1991) Nature 354:82). The dishes were incubated in a shaking incubator at 37° C., 5% CO2 for various time points at 40 rpm. For platelet bead-binding assay, the platelets isolated as described in Example 1 were added to an ultra-low attachment 35-mm petri dish and incubated with the resin beads in the shaking incubator as described for the cell-bead binding assy. Phase contrast images were taken at different time points using an Olympus IX81 microscope.
Three integrin-targeting ligands—LXY30 (α3β1), LLP2A (α4β1) and LXW7 (αvβ3)—were tested for their binding activities to EPCs and ECs. […] LXY30 only bound to ECs, not to EPCs. LLP2A only bound to EPCs, not to ECs. LXW7 bound well to both EPCs and ECs.

T1 sequence (P06756 31-889 limits assumed): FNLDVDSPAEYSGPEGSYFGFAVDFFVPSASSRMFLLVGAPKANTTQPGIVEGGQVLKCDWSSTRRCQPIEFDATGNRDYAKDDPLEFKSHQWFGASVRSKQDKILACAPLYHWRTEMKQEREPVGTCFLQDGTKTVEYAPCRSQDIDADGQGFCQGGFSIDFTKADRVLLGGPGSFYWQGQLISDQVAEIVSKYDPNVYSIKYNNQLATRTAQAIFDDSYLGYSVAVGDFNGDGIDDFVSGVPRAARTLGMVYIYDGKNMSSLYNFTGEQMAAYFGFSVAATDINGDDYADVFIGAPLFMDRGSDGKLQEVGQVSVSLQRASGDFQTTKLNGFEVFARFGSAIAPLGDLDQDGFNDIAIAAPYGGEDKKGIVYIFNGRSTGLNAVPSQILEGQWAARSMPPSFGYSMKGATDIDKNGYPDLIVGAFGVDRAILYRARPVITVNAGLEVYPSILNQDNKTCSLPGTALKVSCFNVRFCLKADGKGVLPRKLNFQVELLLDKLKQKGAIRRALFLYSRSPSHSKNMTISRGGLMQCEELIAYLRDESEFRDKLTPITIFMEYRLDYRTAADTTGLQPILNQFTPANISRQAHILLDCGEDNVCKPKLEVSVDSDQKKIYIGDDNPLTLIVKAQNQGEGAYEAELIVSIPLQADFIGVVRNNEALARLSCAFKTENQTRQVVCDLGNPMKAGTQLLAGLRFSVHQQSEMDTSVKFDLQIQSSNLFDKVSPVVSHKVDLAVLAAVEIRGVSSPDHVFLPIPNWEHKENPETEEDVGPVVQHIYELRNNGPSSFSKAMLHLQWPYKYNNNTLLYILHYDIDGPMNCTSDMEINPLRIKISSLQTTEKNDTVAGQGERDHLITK
T1 sequence (P06756 891-1048 partner limits assumed): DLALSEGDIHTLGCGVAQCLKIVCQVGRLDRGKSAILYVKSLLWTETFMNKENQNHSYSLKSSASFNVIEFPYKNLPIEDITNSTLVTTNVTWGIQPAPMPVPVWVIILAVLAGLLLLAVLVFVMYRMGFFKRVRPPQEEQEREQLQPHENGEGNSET
T1 sequence (P05106 27-788): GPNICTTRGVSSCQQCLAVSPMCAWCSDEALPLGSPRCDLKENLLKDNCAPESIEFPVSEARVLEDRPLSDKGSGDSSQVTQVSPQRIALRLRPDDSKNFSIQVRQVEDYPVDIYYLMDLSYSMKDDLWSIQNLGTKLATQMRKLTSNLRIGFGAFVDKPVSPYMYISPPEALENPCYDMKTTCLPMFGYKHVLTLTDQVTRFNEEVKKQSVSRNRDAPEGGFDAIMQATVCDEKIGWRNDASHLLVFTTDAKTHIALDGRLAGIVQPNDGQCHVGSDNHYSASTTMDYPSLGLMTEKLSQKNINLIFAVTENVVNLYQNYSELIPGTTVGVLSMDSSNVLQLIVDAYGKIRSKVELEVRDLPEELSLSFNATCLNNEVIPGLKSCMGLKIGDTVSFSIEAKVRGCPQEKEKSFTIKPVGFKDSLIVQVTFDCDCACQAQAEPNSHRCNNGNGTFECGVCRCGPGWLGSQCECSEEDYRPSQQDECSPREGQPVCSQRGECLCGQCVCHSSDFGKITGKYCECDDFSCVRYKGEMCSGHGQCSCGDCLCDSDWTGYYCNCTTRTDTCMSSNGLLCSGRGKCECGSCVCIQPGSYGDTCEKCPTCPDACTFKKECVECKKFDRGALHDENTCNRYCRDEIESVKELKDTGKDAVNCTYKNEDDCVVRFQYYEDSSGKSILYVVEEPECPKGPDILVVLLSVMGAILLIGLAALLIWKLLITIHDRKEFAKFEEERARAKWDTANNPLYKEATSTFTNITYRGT

GRGD [reference compound]: the “binding to THP-1 monocytes by flow cytometry” value with THP-1 monocytes [1] is reported as “did not bind to THP-1 monocytes”. In addition, the “binding affinity with platelets by flow cytometry” value in the test with platelets [2] is recorded as “strong binding to platelets”. Moreover, the “binding affinity to αvβ3-K562 cells by flow cytometry” value with integrin αvβ3 is recorded as “bound well”. Moreover, in the test with integrin αIIbβ3, the “binding to αIIbβ3-K562 cells by flow cytometry” value is “very strong binding”. Also, in the test on HCAECs [3], the “attachment of HCAECs on ligand treated surface” value is “bound to both LXW7 and GRGD”. Moreover, the “THP-1 monocyte attachment on ligand treated surface” value in the test on THP-1 monocytes [4] is “did not support THP-1 monocyte attachment”. The “platelet adhesion on ligand treated surface” value in the test with platelets [5] is “significantly higher number of platelets to attach”.

On to “LXY30: integrin-targeting ligand (α3β1), synthesized as in U.S. Pat. No. 9,073,974 (CDGFGPNCR; not fully specified; also: cyclised, D-residues and non-natural residues, places not given here) [reference compound]”, for which the “binding of HECFCs to ligand-displaying resin beads” value in the test on HECFCs is on record as “not to HECFCs or to THP-1 monocytes”. Moreover, the “binding of HCAECs to ligand-displaying resin beads” value in the test with HCAECs [6] is “bound only to HCAECs”.
